Each block holds one compound with its values, some of them ahead of it.
How the values were obtained:
[1] = test system: Mus musculus; assay: Anti-inflammatory activity in mouse assessed as inhibition of croton oil-induced ear edema at 0.3 umol/cm2 administered topically relative to control; type: functional
[2] = test system: Mus musculus; assay: Anti-inflammatory activity in mouse assessed as inhibition of croton oil-induced ear edema at 10 umol/cm2 administered topically relative to control; type: functional
[3] = test system: Mus musculus; assay: (§1) Anti-parkinson's activity in intranigral LPS-induced Parkinson's disease-like C57BL/6 mouse model assessed as protection against dopaminergic neuronal loss in substantia nigra by measuring increase in TH-positive neuronal cells at 19.3 mg/kg, sc once daily for 21 days starting from day 1 post LPS treatment by immunohistochemistry relative to control; type: functional
[4] = test system: Mus musculus; assay: Anti-parkinson's activity in intranigral LPS-induced Parkinson's disease-like C57BL/6 mouse model assessed as astrocytes activation at 19.3 mg/kg, sc once daily for 21 days starting from day 1 post LPS treatment by confocal fluorescence microscopic method relative to control; type: functional
[5] = test system: Mus musculus; assay: (§2) Anti-parkinson's activity in intranigral LPS-induced Parkinson's disease-like C57BL/6 mouse model assessed as inhibition of microglial hyperactivation by measuring IBA1 positive cells at 19.3 mg/kg, sc once daily for 21 days starting from day 1 post LPS treatment by immunohistochemistry relative to control; type: functional; settings: C57BL/6, sc
[6] = test system: Mus musculus; assay: Anti-parkinson's activity in intranigral LPS-induced Parkinson's disease-like C57BL/6 mouse model assessed as astrocytes activation at 25 mg/kg, sc once daily for 21 days starting from day 1 post LPS treatment by confocal fluorescence microscopic method relative to control; type: functional
[7] = test system: Mus musculus; assay: as §1, with “25” for “19.3”; type: functional
[8] = test system: Mus musculus; assay: as §2, with “25” for “19.3”; type: functional; settings: C57BL/6, sc
[9] = Antitumor activity in mouse adenocarcinoma model at 100 ppm relative to control; type: functional
[10] = Antitumor activity in mouse adenocarcinoma model at 500 ppm relative to control; type: functional
[11] = test system: RAW264.7; assay: Anti-inflammatory activity in mouse RAW264.7 cells assessed as inhibition of LPS-induced NO production; type: functional, cell-based
[12] = test system: RAW264.7; assay: Anti-inflammatory activity in mouse RAW264.7 cells assessed as inhibition of LPS-induced iNOS gene expression relative to control; type: functional
[13] = test system: Neutrophil; assay: Anti-inflammatory activity in human neutrophils assessed as inhibition of fMLP/CB-induced superoxide anion generation; type: functional, cell-based
[14] = test system: Mus musculus; assay: Anti-inflammatory activity in mouse assessed as inhibition of carrageenan-induced paw edema at 10 mg/kg preincubated for 5 hrs followed by carrageenan challenge relative to control; type: functional
[15] = test system: RAW264.7; assay: Anti-inflammatory activity in mouse RAW264.7 cells assessed as inhibition of LPS-induced COX-2 gene expression relative to control; type: functional

SMILES: CC(C)=CCOc1ccc(CCCO)cc1
inhibition (INH) [1]: 28%
inhibition (INH) [2]: 68%

SMILES: COc1cc(CO)cc(OC)c1OCC=C(C)C
inhibition (INH) [1]: 31%
inhibition (INH) [2]: 77%

SMILES: CC(C)=CCOC1=CC(=O)c2ccccc2C1=O
inhibition (INH) [1]: 14%

SMILES: CC(C)=CCOc1ccc2ccc(=O)oc2c1 [7-PRENYLOXYCOUMARIN]
fold change (FC) [3]: 2.2
Activity [4]: 65.3%
inhibition in vivo at 19.3 mg/kg [5]: 19.1%

SMILES: CC(C)=CCC/C(C)=C/COc1ccc2ccc(=O)oc2c1 [AURAPTENE]
Activity [6]: 68.4%
fold change (FC) [7]: 2.2
inhibition in vivo at 25 mg/kg [8]: 39.1%

SMILES: C=C(C)CCC/C(C)=C/COc1ccc(/C=C/C(=O)N[C@@H](CCCNC(=N)N[N+](=O)[O-])C(=O)O)cc1OC
Activity [9]: 84%
Activity [10]: 94%

IC50 [11]: 5.9 µM
SMILES: COc1c(OC/C=C(\C)CCC=C(C)C)ccc2ccc(=O)oc12 [COLLININ]

SMILES: CC(C)=CCOc1c2occc2cc2ccc(=O)oc12 [PENTOSALEN]
inhibition (INH) [12]: 69.2%
IC50 [13]: 1.7 µM
inhibition in vivo at 10 mg/kg [14]: 54.4%
inhibition (INH) [15]: 66.7%

SMILES: CC(C)=CCOc1ccc(CCO)cc1 [ETROGOL]
inhibition (INH) [1]: 32%
inhibition (INH) [2]: 78%
